Measurements: patent US10172858B2, “Combination pharmaceutical compositions and uses thereof” (Intellikine LLC, priority 2011, dated 2019)
Where two headings read alike, the source gives them in different places.

Key:
[1] = molecular target: PI3K δ (Homo sapiens (Human), UniProt O00329); test: PI3K δ kinase assay; assay type: biochemical
[2] = molecular target: PI3K γ (Homo sapiens (Human), UniProt P48736); test: PI3K γ kinase assay; assay type: biochemical; conditions: Table 2
[3] = molecular target: PI3K β (Homo sapiens (Human), UniProt P42338); test: PI3K β kinase assay; assay type: biochemical; conditions: Table 2
[4] = molecular target: PI3K α (Homo sapiens (Human), UniProt P42336); test: PI3K α kinase assay; assay type: biochemical
PI3K α, sequence (P42336 whole entry): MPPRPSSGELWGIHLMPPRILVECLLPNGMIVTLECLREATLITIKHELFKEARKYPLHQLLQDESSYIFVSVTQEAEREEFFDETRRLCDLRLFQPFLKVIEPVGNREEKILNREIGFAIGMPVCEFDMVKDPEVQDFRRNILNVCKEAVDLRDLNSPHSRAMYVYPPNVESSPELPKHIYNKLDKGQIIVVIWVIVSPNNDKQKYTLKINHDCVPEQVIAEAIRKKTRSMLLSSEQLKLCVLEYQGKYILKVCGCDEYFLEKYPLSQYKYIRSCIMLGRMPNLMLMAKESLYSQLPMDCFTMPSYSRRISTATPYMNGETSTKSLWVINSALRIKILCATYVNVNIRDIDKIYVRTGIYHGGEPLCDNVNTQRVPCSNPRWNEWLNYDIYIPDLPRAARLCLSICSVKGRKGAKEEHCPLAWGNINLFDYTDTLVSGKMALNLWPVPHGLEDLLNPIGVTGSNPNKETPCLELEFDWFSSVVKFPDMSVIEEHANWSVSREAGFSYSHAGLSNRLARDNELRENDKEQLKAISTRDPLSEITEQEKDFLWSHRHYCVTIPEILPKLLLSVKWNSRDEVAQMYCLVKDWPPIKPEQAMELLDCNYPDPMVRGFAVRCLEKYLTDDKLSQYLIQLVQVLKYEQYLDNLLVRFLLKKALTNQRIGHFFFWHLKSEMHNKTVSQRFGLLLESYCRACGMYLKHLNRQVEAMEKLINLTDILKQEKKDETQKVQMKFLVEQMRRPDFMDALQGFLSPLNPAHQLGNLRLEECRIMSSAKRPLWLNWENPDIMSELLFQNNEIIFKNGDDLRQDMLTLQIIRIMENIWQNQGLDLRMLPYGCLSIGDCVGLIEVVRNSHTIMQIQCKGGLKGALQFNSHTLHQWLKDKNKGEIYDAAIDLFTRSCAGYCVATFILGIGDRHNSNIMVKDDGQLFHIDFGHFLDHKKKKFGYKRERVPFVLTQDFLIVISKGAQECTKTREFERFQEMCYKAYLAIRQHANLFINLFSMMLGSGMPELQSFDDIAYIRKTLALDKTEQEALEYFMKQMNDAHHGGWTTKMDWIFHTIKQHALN
PI3K α, sequence (P27986 whole entry partner): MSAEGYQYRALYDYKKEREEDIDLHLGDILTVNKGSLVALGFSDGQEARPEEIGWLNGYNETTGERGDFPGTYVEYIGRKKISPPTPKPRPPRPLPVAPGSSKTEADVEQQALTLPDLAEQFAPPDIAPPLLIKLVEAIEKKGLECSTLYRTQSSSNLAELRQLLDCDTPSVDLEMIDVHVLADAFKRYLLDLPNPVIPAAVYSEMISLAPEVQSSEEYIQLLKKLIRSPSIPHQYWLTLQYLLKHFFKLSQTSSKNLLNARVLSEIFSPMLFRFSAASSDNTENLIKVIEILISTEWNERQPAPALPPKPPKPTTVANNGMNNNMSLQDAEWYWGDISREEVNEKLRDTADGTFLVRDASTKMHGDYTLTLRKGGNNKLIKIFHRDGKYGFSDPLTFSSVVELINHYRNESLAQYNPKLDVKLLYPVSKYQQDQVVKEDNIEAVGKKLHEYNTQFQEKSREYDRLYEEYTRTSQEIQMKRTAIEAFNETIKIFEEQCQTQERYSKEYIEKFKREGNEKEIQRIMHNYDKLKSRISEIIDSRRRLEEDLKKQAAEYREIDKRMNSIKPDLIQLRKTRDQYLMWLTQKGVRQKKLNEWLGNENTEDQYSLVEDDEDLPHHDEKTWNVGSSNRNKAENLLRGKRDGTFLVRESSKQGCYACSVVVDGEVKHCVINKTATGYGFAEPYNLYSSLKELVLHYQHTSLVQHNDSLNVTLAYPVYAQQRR

[5] = molecular target: mTORC (Homo sapiens (Human), UniProt P42345); test: mTORC in vitro IC50 (Table 2); assay type: biochemical
mTORC, sequence (P42345 1360-2549): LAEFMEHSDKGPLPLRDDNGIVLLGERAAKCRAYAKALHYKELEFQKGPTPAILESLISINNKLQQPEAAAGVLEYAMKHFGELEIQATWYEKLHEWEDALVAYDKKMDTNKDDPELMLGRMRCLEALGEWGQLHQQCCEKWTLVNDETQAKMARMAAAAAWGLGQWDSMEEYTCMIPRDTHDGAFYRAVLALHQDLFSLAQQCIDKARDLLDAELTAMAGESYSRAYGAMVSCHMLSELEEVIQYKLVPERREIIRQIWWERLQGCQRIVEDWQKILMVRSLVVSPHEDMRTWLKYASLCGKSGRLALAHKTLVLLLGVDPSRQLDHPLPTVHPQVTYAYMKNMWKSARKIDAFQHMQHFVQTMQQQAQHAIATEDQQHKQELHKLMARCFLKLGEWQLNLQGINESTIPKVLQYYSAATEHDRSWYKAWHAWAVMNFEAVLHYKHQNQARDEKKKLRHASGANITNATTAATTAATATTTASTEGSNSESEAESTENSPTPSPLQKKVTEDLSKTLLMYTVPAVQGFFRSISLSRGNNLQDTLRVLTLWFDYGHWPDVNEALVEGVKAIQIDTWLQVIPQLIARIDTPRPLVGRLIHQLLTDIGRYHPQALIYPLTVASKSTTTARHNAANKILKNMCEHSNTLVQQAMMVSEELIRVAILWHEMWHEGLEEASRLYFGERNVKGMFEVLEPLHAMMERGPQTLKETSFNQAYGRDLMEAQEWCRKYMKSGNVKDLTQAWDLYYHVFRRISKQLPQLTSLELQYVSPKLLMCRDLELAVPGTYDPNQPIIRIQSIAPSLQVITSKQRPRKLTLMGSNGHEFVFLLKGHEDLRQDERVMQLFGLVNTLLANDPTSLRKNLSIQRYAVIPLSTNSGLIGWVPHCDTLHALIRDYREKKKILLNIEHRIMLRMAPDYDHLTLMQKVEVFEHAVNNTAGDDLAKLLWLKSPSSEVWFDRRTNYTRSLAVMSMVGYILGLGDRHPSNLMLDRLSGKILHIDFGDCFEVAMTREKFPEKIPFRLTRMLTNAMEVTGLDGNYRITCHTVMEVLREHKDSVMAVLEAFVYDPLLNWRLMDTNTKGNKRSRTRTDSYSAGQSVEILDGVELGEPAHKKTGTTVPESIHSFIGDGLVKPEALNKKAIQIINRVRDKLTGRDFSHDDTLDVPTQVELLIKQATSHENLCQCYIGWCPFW
Experimental: The compounds described herein and any other mTor inhibitors known in the art can be tested against recombinant mTOR (Invitrogen) in an assay containing 50 mM HEPES, pH 7.5, 1 mM EGTA, 10 mM MgCl2, 2.5 mM, 0.01% Tween, 10 μM ATP (2.5 μCi of μ-32P-ATP), and 3 μg/mL BSA. Rat recombinant PHAS-1/4EBP1 (Calbiochem; 2 mg/mL) is used as a substrate. Reactions are terminated by spotting onto nitrocellulose, which is washed with 1M NaCl/1% phosphoric acid (approximately 6 times, 5-10 minutes each). Sheets are dried and the transferred radioactivity quantitated by phosphorimaging.
For instance, one can use Invitrogen's LanthaScreen™ Kinase assay to test the inhibitors of mTOR disclosed herein. This assay is a time resolved FRET platform that measures the phosphorylation of GFP labeled 4EBP1 by mTOR kinase. The kinase reaction is performed in a white 384 well microtitre plate. The total reaction volume is 20 ul per well and the reaction buffer composition is 50 mM HEPES pH7.5, 0.01% Polysorbate 20, 1 mM EGTA, 10 mM MnCl2, and 2 mM DTT. In the first step, each well receives 2 ul of test compound in 20% dimethylsulphoxide resulting in a 2% DMSO final concentration. Next, 8 ul of mTOR diluted in reaction buffer is added per well for a 60 ng/ml final concentration. To start the reaction, 10 ul of an ATP/GFP-4EBP1 mixture (diluted in reaction buffer) is added per well for a final concentration of 10 μM ATP and 0.5 μM GFP-4EBP1. The plate is sealed and incubated for 1 hour at room temperature. […] The plate is sealed, incubated for 1 hour at room temperature, and then read on a plate reader set up for LanthaScreen™ TR-FRET. Data is analyzed and IC50s are generated using GraphPad Prism 5.

[6] = system: PC3; test: PC3 tumor cell line proliferation assay; assay type: cell-based; conditions: Homo sapiens, PC-3; Table 2, in vitro IC50
Experimental: The assay is performed in a 96 well microtiter plate using Alamar Blue reduction. […] A compound disclosed herein is diluted in Tumor Cell Media and added in a 10 ul volume. […] A volume of 10 uL of Alamar Blue reagent is added to each well and plates are incubated for 3 hours at 37 C and 5% CO2. Alamar Blue fluoresce is read at 560Ex/590Em, and IC50 values are calculated using GraphPad Prism 5.

[7] = system: Endometrial cancer cells containing mutations in PTEN and FGFR2; test: Combination therapy in a tumor mouse model, tumor volume; assay type: in vivo, mice; conditions: Paclitaxel alone 20 mg/kg Q1W intravenous
Text: Endometrial cancer cells containing mutations in PTEN and FGFR2 were implanted into mice. Mice having tumor volumes of approximately 150 mm^3 were grouped by treatment schedule, with the start of treatment designated as day 0. Control mice received no treatment.
In a further example, mice were implanted with endometrial cancer cells as above. Mice having tumor volumes of approximately 150 mm^3 were grouped by treatment schedule, with the start of treatment designated as day 0. Control mice received no treatment.

[8] = system: HEC59 (paclitaxel resistant cell line) cells; test: Growth of HEC59 cells (FIG. 9A); assay type: cell-based
[9] = system: pS6, cleaved PARP; test: Western blot of pS6 and cleaved PARP (FIG. 6); assay type: cell-based; conditions: paclitaxel alone
[10] = system: mTORC1-dependent NRDG1 phosphorylation; test: Western blot of NRDG1 phosphorylation (FIG. 4B); assay type: cell-based

PI3K γ, sequence (P48736 whole entry, species assumed): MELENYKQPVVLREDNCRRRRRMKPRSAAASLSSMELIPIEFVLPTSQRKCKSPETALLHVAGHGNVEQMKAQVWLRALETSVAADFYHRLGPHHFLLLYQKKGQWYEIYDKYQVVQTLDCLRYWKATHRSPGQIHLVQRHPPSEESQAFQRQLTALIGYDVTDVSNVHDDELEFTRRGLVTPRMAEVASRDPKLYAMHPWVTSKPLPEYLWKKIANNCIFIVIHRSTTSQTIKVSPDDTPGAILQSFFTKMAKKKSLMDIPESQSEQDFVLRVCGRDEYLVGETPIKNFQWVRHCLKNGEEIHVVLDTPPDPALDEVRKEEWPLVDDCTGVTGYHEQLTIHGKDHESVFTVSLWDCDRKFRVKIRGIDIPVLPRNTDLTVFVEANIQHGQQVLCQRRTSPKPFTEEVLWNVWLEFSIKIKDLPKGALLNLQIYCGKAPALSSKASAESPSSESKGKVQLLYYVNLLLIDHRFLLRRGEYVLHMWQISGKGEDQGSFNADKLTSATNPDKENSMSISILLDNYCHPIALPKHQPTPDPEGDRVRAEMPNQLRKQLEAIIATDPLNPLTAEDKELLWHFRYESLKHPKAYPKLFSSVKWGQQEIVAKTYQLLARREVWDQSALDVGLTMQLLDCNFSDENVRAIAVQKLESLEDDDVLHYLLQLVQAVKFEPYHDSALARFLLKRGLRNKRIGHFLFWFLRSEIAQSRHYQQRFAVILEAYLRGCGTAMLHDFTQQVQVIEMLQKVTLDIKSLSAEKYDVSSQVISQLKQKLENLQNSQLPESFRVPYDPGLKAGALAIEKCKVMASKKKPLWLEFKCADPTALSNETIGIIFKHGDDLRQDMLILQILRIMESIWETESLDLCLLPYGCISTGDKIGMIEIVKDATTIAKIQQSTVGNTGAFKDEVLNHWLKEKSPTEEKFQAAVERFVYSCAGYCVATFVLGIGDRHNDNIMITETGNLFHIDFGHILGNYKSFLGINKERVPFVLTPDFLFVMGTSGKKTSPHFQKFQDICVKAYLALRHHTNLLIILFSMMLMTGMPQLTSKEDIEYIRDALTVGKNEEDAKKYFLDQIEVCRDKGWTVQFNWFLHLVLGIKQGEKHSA

SMILES | IC50 ([1]; Table 2) [nM] | IC50 [2] [nM] | IC50 [3] [nM] | IC50 ([4]; Table 2) [nM] | IC50 [5] [nM] | IC50 [6] [nM] | IC50 [4] [nM] | IC50 [1] [nM] | increase in average tumor volume by day 22 [7] [%] | average tumor volume by day 22 ([7]; from about 150 mm^3 at day 0) | inhibition of the growth of HEC59 cells [8] | pS6 level [9] | sensitivity of mTORC1-dependent NRDG1 phosphorylation [10]
Nc1ncnc2c1c(-c1cc3cccc(O)c3[nH]1)nn2C1CCN(C(=O)C2CC2)CC1 [Compound 41] | > 500 | < 50 | > 500 | > 500 | < 10 | > 500 | – | – | – | – | – | – | –
CC(C)n1nc(-c2cc3cccc(Cl)c3[nH]2)c2c(N)ncnc21 [Compound 50] | < 500 | < 500 | > 500 | > 500 | < 50 | – | – | – | – | – | – | – | –
Nc1ncnc2c1c(-c1cc3cccc(Cl)c3[nH]1)nn2C1CCOCC1 [Compound 51] | < 500 | < 500 | > 500 | > 500 | < 50 | – | – | – | – | – | – | – | –
CN1CCN(C2CC(n3nc(-c4cc5cc(O)ccc5[nH]4)c4c(N)ncnc43)C2)CC1 (stereo not drawn) [Compound 52] | < 500 | > 500 | > 500 | – | < 500 | – | > 500 | – | – | – | – | – | –
COc1ccc(Cl)c2cc(-c3nn(C4CCOCC4)c4ncnc(N)c34)[nH]c12 [Compound 61] | > 500 | > 500 | > 500 | > 500 | < 25 | – | – | – | – | – | – | – | –
Nc1ncnc2c1c(-c1cc3cccc(O)c3[nH]1)nn2C1CCOCC1 [Compound 62] | < 100 | > 500 | > 500 | > 500 | < 5 | – | – | – | – | – | – | – | –
COc1cccc2cc(-c3nn(C4CCOCC4)c4ncnc(N)c34)[nH]c12 [Compound 63] | < 25 | < 25 | > 500 | – | < 5 | – | < 500 | – | – | – | – | – | –
CC(C)N1CCC(n2nc(-c3cc4cccc(O)c4[nH]3)c3c(N)ncnc32)CC1 [Compound 64] | < 500 | < 500 | > 500 | > 500 | < 25 | – | – | – | – | – | – | – | –
CC(=O)N1CCC(n2nc(-c3cc4ccc(O)cc4[nH]3)c3c(N)ncnc32)CC1 [Compound 65] | < 25 | < 25 | > 500 | < 50 | < 10 | – | – | – | – | – | – | – | –
COc1cccc2cc(-c3nn(C4CCN(C(=O)C5CC5)CC4)c4ncnc(N)c34)[nH]c12 [Compound 66] | > 500 | > 500 | > 500 | > 500 | > 500 | – | – | – | – | – | – | – | –
COc1cc(Cl)c2[nH]c(-c3nn(C4CCOCC4)c4ncnc(N)c34)cc2c1 [Compound 67] | > 500 | > 500 | > 500 | > 500 | > 500 | – | – | – | – | – | – | – | –
Nc1ncnc2c1c(-c1cc3cc(O)cc(Cl)c3[nH]1)nn2C1CCOCC1 [Compound 68] | < 25 | < 50 | > 500 | < 500 | < 5 | – | – | – | – | – | – | – | –
CC(=O)N1CCC(n2nc(-c3cc4c(Cl)ccc(O)c4[nH]3)c3c(N)ncnc32)CC1 [Compound 69] | – | > 500 | > 500 | > 500 | < 5 | – | – | < 500 | – | – | – | – | –
CC(=O)N1CCC(n2nc(-c3cc4cc(O)cc(Cl)c4[nH]3)c3c(N)ncnc32)CC1 [Compound 70] | < 25 | < 100 | > 500 | < 500 | < 5 | – | – | – | – | – | – | – | –
CC(C)N1CCC(n2nc(-c3cc4c(Cl)ccc(O)c4[nH]3)c3c(N)ncnc32)CC1 [Compound 71] | – | > 500 | > 500 | > 500 | < 100 | – | – | > 500 | – | – | – | – | –
CC(=O)O[C@H]1C(=O)[C@@]2(C)[C@H]([C@H](OC(=O)c3ccccc3)[C@]3(O)C[C@H](OC(=O)[C@H](O)[C@@H](NC(=O)c4ccccc4)c4ccccc4)C(C)=C1C3(C)C)[C@]1(OC(C)=O)CO[C@@H]1C[C@@H]2O [Paclitaxel] | – | – | – | – | – | – | – | – | 17 | about 175 mm^3 | partial inhibition | induction of pS6 | –
CO[C@H]1C[C@@H]2CC[C@@H](C)[C@@](O)(O2)C(=O)C(=O)N2CCCC[C@H]2C(=O)O[C@H]([C@H](C)C[C@@H]2CC[C@@H](O)[C@H](OC)C2)CC(=O)[C@H](C)/C=C(\C)[C@@H](O)[C@@H](OC)C(=O)[C@H](C)C[C@H](C)/C=C/C=C/C=C/1C [rapamycin] | – | – | – | – | – | – | – | – | – | – | – | – | not
